Source: ChEMBL document CHEMBL5209589, “Membrane potential based transport assay for SLC1A3 using HEK293 JumpIn SLC1A3 OE cells” (2022)

Molecular target: Excitatory amino acid transporter 1 (Homo sapiens, UniProt P43003)
Experiment: Substrate uptake by the Excitatory Amino Acid Transporter 1 (EAAT1, SLC1A3) as assessed by the fluorescent FLIPR membrane potential dye in HEK-293 JumpIN-SLC1A3 cells (PubChem AID: 1745864)
Type: functional, cell-based, HEK293

Sequence of Excitatory amino acid transporter 1 (P43003 whole entry): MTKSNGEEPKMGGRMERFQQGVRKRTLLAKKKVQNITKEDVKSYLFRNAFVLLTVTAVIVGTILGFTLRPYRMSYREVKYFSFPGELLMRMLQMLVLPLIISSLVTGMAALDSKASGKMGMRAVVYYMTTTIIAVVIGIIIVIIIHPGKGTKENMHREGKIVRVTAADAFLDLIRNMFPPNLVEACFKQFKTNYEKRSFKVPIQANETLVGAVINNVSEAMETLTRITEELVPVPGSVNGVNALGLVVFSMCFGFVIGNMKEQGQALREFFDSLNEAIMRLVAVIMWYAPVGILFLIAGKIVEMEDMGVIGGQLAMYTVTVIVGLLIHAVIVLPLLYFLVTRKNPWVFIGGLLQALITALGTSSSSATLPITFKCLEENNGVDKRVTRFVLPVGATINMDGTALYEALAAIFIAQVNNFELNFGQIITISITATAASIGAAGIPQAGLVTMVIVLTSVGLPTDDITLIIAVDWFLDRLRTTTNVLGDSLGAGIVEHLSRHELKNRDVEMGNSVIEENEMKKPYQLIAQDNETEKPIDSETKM

| EC50 [µM] | Compound |
| --- | --- |
| 376 | N[C@@H](CS)C(=O)O [CYSTEINE] |
| 16 | N[C@@H](CCC(=O)O)C(=O)O [GLUTAMIC ACID] |
